Data as given in US9540392B2, “Thienopyrimidines” (BAYER PHARMA AKTIENGESELLSCHAFT, priority 2012, dated 2017).

target: T1, human full-length MKNK1 (Homo sapiens, UniProt Q9BUB5, T385D); test: MKNK1 kinase high ATP assay (TR-FRET); type: biochemical; settings: 2 mM ATP, after preincubation with MKNK1; read-out: MKNK1 IC50 (MKNK1 high ATP)
T1 construct: GST (N); purchased Carna Biosciences 02-145; host or cells: insect cells (baculovirus expression system)
Description: MKNK1-inhibitory activity at high ATP of compounds of the present invention after their preincubation with MKNK1 was quantified employing the TR-FRET-based MKNK1 high ATP assay as described in the following paragraphs.
As substrate for the kinase reaction the biotinylated peptide biotin-Ahx-[…] (C-terminus in amide form) was used, which can be purchased e.g. from the company Biosyntan (Berlin-Buch, Germany).
For the assay 50 nL of a 100 fold concentrated solution of the test compound in DMSO was pipetted into a black low volume 384 well microtiter plate (Greiner Bio-One, Frickenhausen, Germany), 2 μL of a solution of MKNK1 in aqueous assay buffer [50 mM HEPES pH 7.5, 5 mM MgCl2, 1.0 mM dithiothreitol, 0.005% (v/v) Nonidet-P40 (Sigma)] was added and the mixture was incubated for 15 min at 22° C. to allow pre-binding of the test compounds to the enzyme before the start of the kinase reaction. Then the kinase reaction was started by the addition of 3 μL of a solution of adenosine-tri-phosphate (ATP, 3.3 mM=>final conc. in the 5 μL assay volume is 2 mM) and substrate (0.1 μM=>final conc. in the 5 μL assay volume is 0.06 μM) in assay buffer and the resulting mixture was incubated for a reaction time of 30 min at 22° C. The concentration of MKNK1 was adjusted depending of the activity of the enzyme lot and was chosen appropriate to have the assay in the linear range, typical concentrations were in the range of 0.003 μg/mL. The reaction was stopped by the addition of 5 μL of a solution of TR-FRET detection reagents (5 nM streptavidine-XL665 [Cisbio Bioassays, Codolet, France] and 1 nM anti-ribosomal protein S6 (pSer236)-antibody from Invitrogen [#44921G] and 1 nM LANCE EU-W1024 Labeled ProteinG [Perkin-Elmer, product no. AD0071]) in an aqueous EDTA-solution (100 mM EDTA, 0.1% (w/v) bovine serum albumin in 50 mM HEPES pH 7.5).
The resulting mixture was incubated for 1 h at 22° C. to allow the formation of complex between the phosphorylated biotinylated peptide and the detection reagents. Subsequently the amount of phosphorylated substrate was evaluated by measurement of the resonance energy transfer from the Eu-chelate to the streptavidine-XL. Therefore, the fluorescence emissions at 620 nm and 665 nm after excitation at 350 nm were measured in a TR-FRET reader, e.g. a Rubystar (BMG Labtechnologies, Offenburg, Germany) or a Viewlux (Perkin-Elmer). The ratio of the emissions at 665 nm and at 622 nm was taken as the measure for the amount of phosphorylated substrate.

T1 sequence (Q9BUB5 1-424 isoform Q9BUB5-2 T344D): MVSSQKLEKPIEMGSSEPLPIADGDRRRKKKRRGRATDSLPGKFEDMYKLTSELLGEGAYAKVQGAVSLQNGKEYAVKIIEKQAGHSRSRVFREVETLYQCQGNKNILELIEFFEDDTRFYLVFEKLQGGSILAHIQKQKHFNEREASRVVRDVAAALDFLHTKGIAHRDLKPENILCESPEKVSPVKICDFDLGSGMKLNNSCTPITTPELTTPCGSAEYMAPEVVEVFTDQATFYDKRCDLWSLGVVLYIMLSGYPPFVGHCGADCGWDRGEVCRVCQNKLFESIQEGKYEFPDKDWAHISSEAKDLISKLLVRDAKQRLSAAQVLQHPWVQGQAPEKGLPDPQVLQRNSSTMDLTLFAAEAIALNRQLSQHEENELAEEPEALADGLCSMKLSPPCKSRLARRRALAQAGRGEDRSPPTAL

Row | IC50 | SMILES
1 | 18.3 nM | O=C(C1CCc2c(sc3ncnc(Nc4ccc5[nH]ncc5c4)c23)C1)N1CCN(Cc2cccnc2)CC1 (racemic) [Example 155, (RS)-[4-(1H-indazol-5-ylamino)-5,6,7,8-tetrahydro[1]benzothieno[2,3-d]pyrimidin-7-yl][4-(pyridin-3-ylmethyl)piperazin-1-yl]methanone]
2 | 20.3 nM | CC(=O)N1CCN(C(=O)C2CCc3c(sc4ncnc(Nc5ccc6[nH]ncc6c5)c34)C2)CC1 (racemic) [Example 97, (RS)-1-(4-{[4-(1H-indazol-5-ylamino)-5,6,7,8-tetrahydro[1]benzothieno[2,3-d]pyrimidin-7-yl]carbonyl}piperazin-1-yl)ethanone]
3 | 1.2 nM | CCOc1cc2[nH]ncc2cc1Nc1ncnc2sc3c(c12)CCC(C(=O)N1CCC(C#N)C1)C3 (racemic) [Example 265, (3RS)-1-({(7RS)-4-[(6-Ethoxy-1H-indazol-5-yl)amino]-5,6,7,8-tetrahydro[1]benzothieno[2,3-d]pyrimidin-7-yl}carbonyl)pyrrolidine-3-carbonitrile]
4 | 14.9 nM | CN(CCN1CCCC1)C(=O)C1CCc2c(sc3ncnc(Nc4ccc5[nH]ncc5c4)c23)C1 (racemic) [Example 167, (RS)-4-(1H-indazol-5-ylamino)-N-methyl-N-[2-(pyrrolidin-1-yl)ethyl]-5,6,7,8-tetrahydro[1]benzothieno[2,3-d]pyrimidine-7-carboxamide]
5 | 0.2 nM | CC(C)Oc1cc2[nH]ncc2cc1Nc1ncnc2sc3c(c12)CCC(C(=O)N1CC(C#N)C1)C3 (racemic) [Example 208, (RS)-1-[(4-{[6-(Propan-2-yloxy)-1H-indazol-5-yl]amino}-5,6,7,8-tetrahydro[1]benzothieno[2,3-d]pyrimidin-7-yl)carbonyl]azetidine-3-carbonitrile]
6 | 12.7 nM | O=C(C1CCc2c(sc3ncnc(Nc4ccc5[nH]ncc5c4)c23)C1)N1CC[C@@H](O)C1 (mixture of isomers) [Example 134, (RS)-(3-hydroxypyrrolidin-1-yl)[4-(1H-indazol-5-ylamino)-5,6,7,8-tetrahydro[1]benzothieno[2,3-d]pyrimidin-7-yl]methanone]
7 | 7 nM | COc1cccc(NC(=O)C2CCc3c(sc4ncnc(Nc5ccc6[nH]ncc6c5)c34)C2)c1 (stereo not shown) [Example 13, 4-(1H-indazol-5-ylamino)-N-(3-methoxyphenyl)-5,6,7,8-tetrahydro[1]benzothieno[2,3-d]pyrimidine-7-carboxamide]
8 | 0.5 nM | COc1cc2[nH]ncc2cc1Nc1ncnc2sc3c(c12)CCC(C(=O)N(C)C(C)C)C3 (racemic) [Example 173, (RS)—N—Isopropyl-4-[(6-methoxy-1H-indazol-5-yl)amino]-N-methyl-5,6,7,8-tetrahydro[1]benzothieno[2,3-d]pyrimidine-7-carboxamide]
9 | 0.7 nM | CC(C)Oc1cc2[nH]ncc2cc1Nc1ncnc2sc3c(c12)CCC(C(=O)N1CCCC1)C3 (racemic) [Example 221, (RS)-(4-{[6-(Propan-2-yloxy)-1H-indazol-5-yl]amino}-5,6,7,8-tetrahydro[1]benzothieno[2,3-d]pyrimidin-7-yl)(pyrrolidin-1-yl)methanone]
10 | 15.3 nM | O=C(CN1CCN(C(=O)C2CCc3c(sc4ncnc(Nc5ccc6[nH]ncc6c5)c34)C2)CC1)NC1CC1 (racemic) [Example 166, (RS)-N-cyclopropyl-2-(4-{[4-(1H-indazol-5-ylamino)-5,6,7,8-tetrahydro[1]benzothieno[2,3-d]pyrimidin-7-yl]carbonyl}piperazin-1-yl)acetamide]
11 | 4 nM | O=C(NCc1ccncc1)C1CCc2c(sc3ncnc(Nc4ccc5[nH]ncc5c4)c23)C1 (stereo not shown) [Example 29, 4-(1H-Indazol-5-ylamino)-N-(pyridin-4-ylmethyl)-5,6,7,8-tetrahydro[1] benzothieno [2,3-d]pyrimidine-7-carboxamide]
12 | 22.4 nM | O=C(C1CCc2c(sc3ncnc(Nc4ccc5[nH]ncc5c4)c23)C1)N1CCN(Cc2ccncc2)CC1 (racemic) [Example 142, (RS)-[4-(1H-indazol-5-ylamino)-5,6,7,8-tetrahydro[1]benzothieno[2,3-d]pyrimidin-7-yl][4-(pyridin-4-ylmethyl)piperazin-1-yl]methanone]
13 | 8.1 nM | Cc1cnc(CNC(=O)C2CCc3c(sc4ncnc(Nc5ccc6[nH]ncc6c5)c34)C2)cn1 (racemic) [Example 148, (RS)-4-(1H-indazol-5-ylamino)-N-[(5-methylpyrazin-2-yl)methyl]-5,6,7,8-tetrahydro[1]benzothieno[2,3-d]pyrimidine-7-carboxamide]
14 | 12.5 nM | O=C(C1CCc2c(sc3ncnc(Nc4ccc5[nH]ncc5c4)c23)C1)N1CCN(c2cnccn2)CC1 (racemic) [Example 114, (RS)-[4-(1H-indazol-5-ylamino)-5,6,7,8-tetrahydro[1]benzothieno[2,3-d]pyrimidin-7-yl][4-(pyrazin-2-yl)piperazin-1-yl]methanone]
15 | 17.4 nM | CC(=O)N1CCN(CCNC(=O)C2CCc3c(sc4ncnc(Nc5ccc6[nH]ncc6c5)c34)C2)CC1 (racemic) [Example 168, (RS)-N-[2-(4-acetylpiperazin-1-yl)ethyl]-4-(1H-indazol-5-ylamino)-5,6,7,8-tetrahydro[1]benzothieno[2,3-d]pyrimidine-7-carboxamide]
16 | 14.4 nM | O=C(C1CCc2c(sc3ncnc(Nc4ccc5[nH]ncc5c4)c23)C1)N1CC(O)C1 (racemic) [Example 159, (RS)-(3-hydroxyazetidin-1-yl)[4-(1H-indazol-5-ylamino)-5,6,7,8-tetrahydro[1]benzothieno[2,3-d]pyrimidin-7-yl]methanone]
17 | 0.2 nM | COc1cc2[nH]ncc2cc1Nc1ncnc2sc3c(c12)CCC(C(=O)N1[C@H](C)CC[C@H]1C)C3 (mixture of isomers) [Example 178, [(2R,5R)-2,5-Dimethylpyrrolidin-1-yl]{(7RS)-4-[(6-methoxy-1H-indazol-5-yl)amino]-5,6,7,8-tetrahydro[1]benzothieno[2,3-d]pyrimidin-7-yl}methanone]
18 | 8.3 nM | CN(C)C(=O)CN(C)C(=O)C1CCc2c(sc3ncnc(Nc4ccc5[nH]ncc5c4)c23)C1 (racemic) [Example 120, (RS)-N-[2-(dimethylamino)-2-oxoethyl]-4-(1H-indazol-5-ylamino)-N-methyl-5,6,7,8-tetrahydro[1]benzothieno[2,3-d]pyrimidine-7-carboxamide]
19 | 1.2 nM | CC(C)Oc1cc2[nH]ncc2cc1Nc1ncnc2sc3c(c12)CCC(C(=O)N1CCOCC1)C3 (racemic) [Example 218, (RS)-Morpholin-4-yl(4-{[6-(propan-2-yloxy)-1H-indazol-5-yl]amino}-5,6,7,8-tetrahydro[1]benzothieno[2,3-d]pyrimidin-7-yl)methanone]
20 | 11.3 nM | O=C(NC1CCOCC1)C1CCc2c(sc3ncnc(Nc4ccc5[nH]ncc5c4)c23)C1 (racemic) [Example 123, (RS)-4-(1H-indazol-5-ylamino)-N-(tetrahydro-2H-pyran-4-yl)-5,6,7,8-tetrahydro[1]benzothieno[2,3-d]pyrimidine-7-carboxamide]
21 | 10 nM | CCNC(=O)C1CCc2c(sc3ncnc(Nc4ccc5[nH]ncc5c4)c23)C1 (stereo not shown) [Example 46, N-Ethyl-4-(1H-indazol-5-ylamino)-5,6,7,8-tetrahydro[1] benzothieno [2,3-d]pyrimidine-7-carboxamide]
22 | 14.7 nM | CCN(CC)C(=O)C1CCc2c(sc3ncnc(Nc4ccc5[nH]ncc5c4)c23)C1 (racemic) [Example 83, (RS)-N,N-diethyl-4-(1H-indazol-5-ylamino)-5,6,7,8-tetrahydro[1]benzothieno[2,3-d]pyrimidine-7-carboxamide]
23 | 6 nM | O=C(NCCc1ccccc1)C1CCc2c(sc3ncnc(Nc4ccc5[nH]ncc5c4)c23)C1 (stereo not shown) [Example 37, 4-(1H-Indazol-5-ylamino)-N-(2-phenylethyl)-5,6,7,8-tetrahydro[1] benzothieno [2,3-d]pyrimidine-7-carboxamide]
24 | 15 nM | O=C(Nc1ccnnc1)C1CCc2c(sc3ncnc(Nc4ccc5[nH]ncc5c4)c23)C1 (racemic) [Example 128, (RS)-4-(1H-indazol-5-ylamino)-N-(pyridazin-4-yl)-5,6,7,8-tetrahydro[1]benzothieno[2,3-d]pyrimidine-7-carboxamide]
25 | 5 nM | O=C(NCc1cccnc1)C1CCc2c(sc3ncnc(Nc4ccc5[nH]ncc5c4)c23)C1 (stereo not shown) [Example 32, 4-(1H-Indazol-5-ylamino)-N-(pyridin-3-ylmethyl)-5,6,7,8-tetrahydro[1] benzothieno [2,3-d]pyrimidine-7-carboxamide]
